# Assay results reported in patent US9790173B2, “Alpha-7 nicotinic acetylcholine receptor modulators and uses thereof-I” (MERCK SHARP & DOHME CORP., priority 2012, dated 2017).
# Experiments:
# rat α7 nAChRs = target: T1, rat α7 nAChRs (Rattus norvegicus, UniProt Q05941); assay: Automated planar patch clamp (Patchliner) electrophysiology, α7 nAChR PAM activity; type: cell-based; design: key to Type I or Type II: I: Type 1 predominately affects the peak current; Type II modulators affect the peak current and also delay the desensitization of the receptor; conditions: for activation at 3 µM: GH4-C1, 3 μM compound in the presence of acetylcholine, GH4C1 cells expressing rat α7 nAChRs, peak current, read-out: Peak potentiation at 3 μM compound; for Type I or Type II: modulator type based on the electrophysiology trace
# T1 construct: expressed in transfected cells; host or cells: GH4C1 cells (rat pituitary line) stably expressing α7 nAChR
# T1 sequence (Q05941 23-502): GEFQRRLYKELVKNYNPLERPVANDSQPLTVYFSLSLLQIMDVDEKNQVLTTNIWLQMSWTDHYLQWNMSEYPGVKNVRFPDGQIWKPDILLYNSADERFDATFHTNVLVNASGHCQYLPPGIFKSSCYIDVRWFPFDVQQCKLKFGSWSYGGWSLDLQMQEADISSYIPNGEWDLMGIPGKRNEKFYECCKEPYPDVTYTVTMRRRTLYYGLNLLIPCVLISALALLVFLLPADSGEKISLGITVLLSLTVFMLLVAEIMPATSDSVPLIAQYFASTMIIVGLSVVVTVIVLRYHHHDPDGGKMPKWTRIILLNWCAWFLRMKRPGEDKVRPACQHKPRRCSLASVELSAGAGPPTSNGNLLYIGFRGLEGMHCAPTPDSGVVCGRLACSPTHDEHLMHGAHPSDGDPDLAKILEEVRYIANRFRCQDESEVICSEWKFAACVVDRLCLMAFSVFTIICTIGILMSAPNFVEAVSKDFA
# Protocol: Tested compounds were prepared by serial dilutions of 10 mM stock solution in DMSO to concentrations of the compound 1000 times higher than its final concentration. The DMSO stock solutions were then diluted 1:100 in the recording buffer bringing DMSO concentration to 1%. These intermediate solutions were further diluted 10 times with buffer to obtain final concentrations and lower DMSO concentration to 0.1%. […]
# Compounds of the invention may be evaluated by electrophysiology using a Patchliner® (Nanion Technologies GmbH, Germany), an automated planar patch-clamp platform of medium throughput was used as a first step in electrophysiological assessment of α7 nAChR positive allosteric modulators (PAMs).
# Briefly, intracellular (KCl—50 mM, NaCl—10 mM, KF—60 mM, EGTA—20 mM, HEPES—10 mM, pH—7.2, 285 mOsmol) and extracellular (NaCl—140 mM, KCl—4 mM, CaCl2—2 mM, MgCl2—1 mM, HEPES—10 mM, D-Glucose—5 mM, pH—7.4, 298 mOsmol) solutions were automatically pipetted onto NPC-16 chip (medium resistance ˜2.5-2.6 MΩ). Suspension of GH4C1 cells expressing rat α7 nAChRs was introduced in 4 wells of a medium resistance chip and suction was applied to attract cells in the holes. The extracellular solution was subsequently exchanged to high calcium solution (NaCl—80 mM, KCl—3 mM, CaCl2—45 mM, HEPES—10 mM, pH—7.4, 298 mOsmol) followed by gigaohm seal formation and obtaining whole-cell configuration. The rest of protocol was carried out in the high-calcium recording solution. Holding potential was −70 mV throughout the protocol. A control response to 60 or 100 μM of ACh was obtained first. Next, a cell was pre-incubated with compound of interest at 3 μM for ˜30 s after which the compound was co-applied with acetylcholine.
# Amplitude of the responses was measured in HEKA Patchmaster software (HEKA Elektronik, Germany) and percentage of potentiation calculated. Recording was repeated […] a minimum of two replicates had been obtained per compound.
# Compounds shown in Table 1 were evaluated by automated planar patch clamp on the Patchliner® as described in Example P2.1. […] The compounds are designated either as Type I or Type II modulators based on the electrophysiology trace. Type 1 predominately affects the peak current. Type II modulators affect the peak current and also delay the desensitization of the receptor.
# mice = assay: T-maze Continuous Alternation Task (T-CAT), scopolamine-induced cognitive impairment; type: in vivo; conditions: mouse; dosed orally at 10 mg/kg; scopolamine-induced deficit
# Text: The T-maze Continuous Alternation Task (T-CAT) measures spontaneous alternation, which is the innate tendency of mice to alternate free choices in a T-maze over a series of successive runs. This sequential procedure relies on working memory and is sensitive to various pharmacological manipulations affecting memory processes.
# The T-maze apparatus is made of gray Plexiglas with a main stem (55 cm long×10 cm wide×25 cm high) and two arms (30 cm long×10 cm wide×25 cm high) positioned at 90 degree angle relative to the main stem. A start box (15 cm long×10 cm wide) is separated from the main stem by a sliding door. Sliding doors are also provided to close specific arms during the forced-choice alternation task.
# The experimental protocol consists of one single session, which starts with 1 “forced-choice” trial, followed by 14 “free-choice” trials. In the first “forced-choice” trial, the animal is confined for 5 s in the start arm and then it is released while either the left or right goal arm is blocked by a sliding door. The animal will negotiate the maze, eventually enter the open goal arm, and return to the start position. Immediately after the return to the start position, the left or right goal door is opened and the animal is allowed to choose freely between the left and right goal arm (“free choice” trials). The animal is considered to have entered an arm when it places four paws in the arm. A session is terminated and the animal is removed from the maze as soon as 14 free-choice trials have been performed or 10 minutes have elapsed, whichever event occurs first. The percentage of alternation over the 14 free-choice trials is determined for each mouse and is used as an index of working memory performance. This percentage is defined as entry in a different arm of the T-maze over successive visits (i.e., left-right-left-right, etc).
# Scopolamine administered 20 minutes prior the initiation of the T-maze session is used to induce disruption in the spontaneous alternation of mice. Test compounds are administered 60 minutes prior the start of the T-maze session in order to evaluate their ability to reverse the scopolamine effect.
# The apparatus is cleaned between each animal using alcohol (70°). Urine and faeces are removed from the maze. During the trials, animal handling and the visibility of the operator are minimized as much as possible.
# The compounds were dosed orally at 10 mg/kg.
melting point [°C],SMILES,activation at 3 µM (rat α7 nAChRs) [%],Type I or Type II (rat α7 nAChRs),T-maze % control at 10 mg/kg (mice) [% control]
–,"NS(=O)(=O)c1ccc([C@H]2C[C@@H]2CNc2ccc(F)cc2)cc1 [Example 3, ±trans 4-(2-{[(4-fluorophenyl)amino]methyl}cyclopropyl)benzenesulfonamide]",969,I,62
–,"CC1(C)[C@H](CNc2ccc(F)cc2)[C@H]1c1ccc(S(N)(=O)=O)cc1 [Example 13, ±trans 4-[3-{[(4-fluorophenyl)amino]methyl}-2,2-dimethylcyclopropyl]benzenesulfonamide]",–,II,80
–,"CC1(C)[C@@H](CNc2ccc(F)cc2C(F)(F)F)[C@@H]1c1ccc(S(N)(=O)=O)cc1 [Example 17, 4-[(1S,3S)-3-({[4-fluoro-2-(trifluoromethyl)phenyl]amino}methyl)-2,2-dimethylcyclopropyl]benzenesulfonamide]",–,I,100
–,"COc1ccc(Cl)cc1NC[C@@H]1[C@@H](c2ccc(S(N)(=O)=O)cc2)C1(C)C [Example 20, 4-[(1R,3R)-3-{[(5-chloro-2-methoxyphenyl)amino]methyl}-2,2-dimethylcyclopropyl]benzenesulfonamide]",–,I,100
–,"COc1ccc(Cl)cc1NC[C@H]1[C@H](c2ccc(S(N)(=O)=O)cc2)C1(C)C [Example 21, 4-[(1S,3S)-3-{[(5-chloro-2-methoxyphenyl)amino]methyl}-2,2-dimethylcyclopropyl]benzenesulfonamide]",–,II,100
210 to 212,"Cc1cc(F)c(F)cc1NC[C@@H]1[C@@H](c2ccc(S(N)(=O)=O)cc2)C1(C)C [Example 30, 4-[(1R,3R)-3-{[(4,5-difluoro-2-methylphenyl)amino]methyl}-2,2-dimethylcyclopropyl]benzenesulfonamide]",419,I,70
–,"CC1(C)[C@@H](CNc2ccc(F)cc2OC(F)F)[C@@H]1c1ccc(S(N)(=O)=O)cc1 [Example 50, 4-[(1S,3S)-3-({[2-(difluoromethoxy)-4-fluorophenyl]amino}methyl)-2,2-dimethylcyclopropyl]benzenesulfonamide]",–,II,77
–,"CC1(C)[C@H](CNc2ccc(F)cc2OC(F)F)[C@H]1c1ccc(S(N)(=O)=O)cc1 [Example 51, 4-[(1R,3R)-3-({[2-(difluoromethoxy)-4-fluorophenyl]amino}methyl)-2,2-dimethylcyclopropyl]benzenesulfonamide]",171,I,81
